PubChem BioAssay (NCI)
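Compound exposure: 48 hours, 5 concentrations, 96-well plates. GI50 marks 50% less growth. The concentration for full growth arrest is given as TGI.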

Key:
Test in all cases: NCI tumour cell line growth inhibition, 48 h
MOLT-4 leukemia = system: MOLT-4 leukemia
OVCAR-5 ovarian = system: OVCAR-5 ovarian
UACC-62 melanoma = system: UACC-62 melanoma
CCRF-CEM leukemia = system: CCRF-CEM leukemia
OVCAR-8 ovarian = system: OVCAR-8 ovarian
SNB-75 CNS = system: SNB-75 CNS
HT29 colon = system: HT29 colon
HL-60(TB) leukemia = system: HL-60(TB) leukemia
MCF7 breast = system: MCF7 breast
SK-MEL-2 melanoma = system: SK-MEL-2 melanoma

Row | Structure (SMILES) | GI50 (MOLT-4 leukemia) [µM] | GI50 (OVCAR-5 ovarian) [µM] | TGI (OVCAR-5 ovarian) [µM] | GI50 (UACC-62 melanoma) [µM] | TGI (UACC-62 melanoma) [µM] | GI50 (CCRF-CEM leukemia) [µM] | TGI (CCRF-CEM leukemia) [µM] | GI50 (OVCAR-8 ovarian) [µM] | TGI (OVCAR-8 ovarian) [µM] | GI50 (SNB-75 CNS) [µM] | TGI (SNB-75 CNS) [µM] | GI50 (HT29 colon) [µM] | TGI (HT29 colon) [µM] | GI50 (HL-60(TB) leukemia) [µM] | TGI (HL-60(TB) leukemia) [µM] | GI50 (MCF7 breast) [µM] | TGI (MCF7 breast) [µM] | GI50 (SK-MEL-2 melanoma) [µM] | TGI (SK-MEL-2 melanoma) [µM] | TGI (MOLT-4 leukemia) [µM]
1 | CN1CCN(c2ccc(NC3=CC(=O)c4ncncc4C3=O)cc2)CC1 | 0.289 | 0.285 | 0.801 | 0.303 | 0.804 | 0.331 | > 100 | 0.323 | 1.57 | 1.7 | 3.11 | 1.72 | 5.98 | 0.249 | 0.635 | 0.186 | 0.405 | 1.54 | 3.45 | 
2 | COc1ccc2c(c1)/C(=N/OC(C)=O)c1c-2c(OC)nc2ccccc12 | > 100 | > 100 | > 100 | > 100 | > 100 | > 100 | > 100 | > 100 | > 100 | 18 | > 100 | > 100 | > 100 | > 100 | > 100 | 88.3 | > 100 | > 100 | > 100 | > 100
3 | CCC(=O)Nc1nnc(Cc2ccc(OC)c(OC)c2)s1 | > 100 | > 100 | > 100 | > 100 | > 100 | > 100 | > 100 | > 100 | > 100 | 44.2 | > 100 | > 100 | > 100 | > 100 | > 100 | > 100 | > 100 | > 100 | > 100 | > 100
4 | Oc1[nH]c2ccccc2c1C=Nc1ccc(-n2cncn2)cc1 | 20.4 | > 25 | > 25 | 14.6 | > 25 | 3.06 | > 25 | 13.9 | > 25 | > 25 | > 25 | > 23.1 | > 25 | 12.9 | > 25 | > 25 | > 25 | > 25 | > 25 | > 25
5 | COc1cc(C(=O)O[C@H](C(=O)NCCCCNC(=O)[C@@H](OC(=O)c2cc(OC)cc3c(C)cccc23)[C@]2(C)CO2)[C@]2(C)CO2)c2cccc(C)c2c1 | < 0.01 | 0.257 | 1.05 | 1.5 | 3.64 | < 0.01 | > 100 | 0.0192 | 0.206 | 0.114 | 0.373 | 0.104 | > 100 | < 0.01 | < 0.01 | < 0.01 | < 0.0355 | 0.0724 |  | 0.676
6 | O=C1NC(=NCCc2ccc(Br)cc2)S/C1=C\c1ccc2ncccc2c1 | 19.7 | > 25 | > 25 | > 25 | > 25 | 21.1 | > 25 | > 25 | > 25 | > 25 | > 25 | > 25 | > 25 | > 25 | > 25 | 22.1 | > 25 | 21.6 | > 25 | > 25
7 | COc1cc(-c2ccc[nH]2)[nH]c1/C=C1\N=C(C)C(CC(=O)OCC(C)(C)C)=C1C | 0.242 | 0.501 | 2.31 | 0.211 | 0.555 | 0.0625 | 2.12 | 0.321 | 1.44 | 0.228 | 0.903 | 0.172 | 1.17 | 0.239 | 0.801 | 0.175 | 1.25 | 0.157 | 0.415 | 1.32
8 | COc1ccc2nc3ccccc3c(NCCNCC(C)O)c2c1 (configuration not stated) | 0.368 | 0.377 | 5.01 | 0.354 | 2.08 | 0.436 | 3.47 | 0.441 | 11.9 | 0.781 | 2.59 | 0.323 | 1.9 | 0.492 | 4.26 | 0.315 | 4.14 | 0.785 | 2.8 | 
9 | CC(C)(C)[Si](C)(C)OC1[C@@H](COC(=O)NC(=O)CCl)O[C@@H](n2cnc3c(N)ncnc32)[C@H]1O[Si](C)(C)C(C)(C)C (some centres not stated) | 1.01 | 3.11 | 9.55 | 6.14 | 12.7 | 0.232 | 0.931 | 1.42 | 4.45 | 3.64 | 10.8 | 2.59 | 8.53 | 4.52 | 12.3 | 2.26 | 9 | 6.72 | 13.8 | 2.22
10 | Cc1c(C(N)=O)sc2nc(C)n(/N=c3\scc(-c4ccccc4)n3Cc3ccccc3)c(=O)c12 | 24.6 | 4.33 | > 100 | 4.26 | 83.2 | 34.2 | > 100 | 3.49 | > 100 | 2.8 | > 100 | 3.04 | > 100 | 6.68 | > 100 | 2.92 | > 100 | 3.89 | 86.6 | > 100
11 | CCCCCCCCN=C(NCCCCCCCC)SCc1cccc2ccccc12 | 1.83 | 1.36 | 2.79 | 1.72 | 3.22 | 2.35 | 9.69 | 1.64 | 3.11 | 1.66 | 3.18 | 0.839 | 2.16 | 1.23 | 3.01 | 1.34 | 2.8 | 2.14 | 3.77 | 4.19
12 | CC/C=C\C[C@H]1C/C=C2/C(=O)C(Cl)=C[C@@H]2C/C=C\CCCC(=O)O1 | 0.329 | 0.592 | 1.84 | 0.28 | 1.2 | 0.143 | 2.64 | 0.143 | 2.68 | 1.19 | 5.39 | 0.325 | 0.79 | 0.527 | 2.7 | 0.0836 | 2.61 | 0.453 | 1.13 | 2.2
